Source: patent US10168342B2, “Lipid probes and uses thereof” (THE SCRIPPS RESEARCH INSTITUTE, priority 2015, dated 2019)
Read-outs that look alike come from different tables or passages of the source.

What was measured:
[1] = target: AEA-DA lipid probe targets in Neuro2a cells (Mus musculus, UniProt Q9CQ45)
[2] = target: AEA-DA lipid probe targets in Neuro2a cells (Mus musculus, UniProt Q8VIK2)
[3] = target: T1, AEA-DA lipid probe targets in Neuro2a cells (Mus musculus, UniProt Q9CQQ7)
T1 sequence (Q9CQQ7 43-256): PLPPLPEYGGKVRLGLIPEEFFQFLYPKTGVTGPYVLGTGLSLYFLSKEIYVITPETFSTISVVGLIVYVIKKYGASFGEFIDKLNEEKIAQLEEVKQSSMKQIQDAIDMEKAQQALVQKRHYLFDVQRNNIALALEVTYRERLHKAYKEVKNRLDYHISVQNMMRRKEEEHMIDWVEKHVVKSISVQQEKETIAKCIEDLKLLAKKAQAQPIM

[4] = target: AEA-DA lipid probe targets in Neuro2a cells (Mus musculus, UniProt Q9D771)
[5] = target: AEA-DA lipid probe targets in Neuro2a cells (Mus musculus, UniProt Q8BUV8)
[6] = target: T2, AEA-DA lipid probe targets in Neuro2a cells (Mus musculus, UniProt Q8R1L4)
T2 sequence (Q8R1L4 1-214): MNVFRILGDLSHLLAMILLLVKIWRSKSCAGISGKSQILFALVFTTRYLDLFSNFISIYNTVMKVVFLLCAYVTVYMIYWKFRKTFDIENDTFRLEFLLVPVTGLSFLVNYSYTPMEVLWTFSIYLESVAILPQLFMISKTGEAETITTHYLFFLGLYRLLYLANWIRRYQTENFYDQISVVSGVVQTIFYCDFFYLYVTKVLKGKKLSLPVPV

[7] = target: T3, AEA-DA lipid probe targets in Neuro2a cells (Mus musculus, UniProt Q8R404)
T3 sequence (Q8R404 1-119): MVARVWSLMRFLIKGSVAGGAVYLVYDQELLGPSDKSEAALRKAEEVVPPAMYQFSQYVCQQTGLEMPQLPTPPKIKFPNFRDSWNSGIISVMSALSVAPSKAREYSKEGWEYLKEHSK

[8] = target: T4, AEA-DA lipid probe targets in Neuro2a cells (Mus musculus, UniProt Q9WTQ8)
T4 sequence (Q9WTQ8 1-209): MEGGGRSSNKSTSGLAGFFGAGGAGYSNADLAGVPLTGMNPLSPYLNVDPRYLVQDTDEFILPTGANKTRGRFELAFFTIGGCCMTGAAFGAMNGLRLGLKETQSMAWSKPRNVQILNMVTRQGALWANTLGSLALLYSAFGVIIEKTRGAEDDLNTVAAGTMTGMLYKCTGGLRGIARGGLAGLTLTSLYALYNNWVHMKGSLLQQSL

[9] = target: T5, AEA-DA lipid probe targets in Neuro2a cells (Mus musculus, UniProt Q505D7); details: for SILAC ratio, OPA3 (Q505D7): Neuro2a cells, AEA-DA probe
T5 sequence (Q505D7 1-179): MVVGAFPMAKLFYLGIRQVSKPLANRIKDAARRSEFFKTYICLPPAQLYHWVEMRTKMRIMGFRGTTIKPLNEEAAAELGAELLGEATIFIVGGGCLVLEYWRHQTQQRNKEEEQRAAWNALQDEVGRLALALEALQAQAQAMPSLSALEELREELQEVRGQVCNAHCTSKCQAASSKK

[10] = target: T6, AEA-DA lipid probe targets in Neuro2a cells (Mus musculus, UniProt P51174)
T6 sequence (P51174 31-430): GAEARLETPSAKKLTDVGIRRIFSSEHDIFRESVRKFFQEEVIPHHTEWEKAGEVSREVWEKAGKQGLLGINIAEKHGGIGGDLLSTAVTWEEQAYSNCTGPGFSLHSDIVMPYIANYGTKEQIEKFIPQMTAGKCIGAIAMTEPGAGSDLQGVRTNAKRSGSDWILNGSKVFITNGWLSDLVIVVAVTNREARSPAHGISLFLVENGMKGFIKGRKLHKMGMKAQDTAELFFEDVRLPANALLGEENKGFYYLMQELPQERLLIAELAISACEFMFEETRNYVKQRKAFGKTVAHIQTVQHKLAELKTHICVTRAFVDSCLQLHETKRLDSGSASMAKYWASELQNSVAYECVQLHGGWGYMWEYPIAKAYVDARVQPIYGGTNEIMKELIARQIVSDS

[11] = target: T7, AEA-DA lipid probe targets in Neuro2a cells (Mus musculus, UniProt Q8BSF4)
T7 sequence (Q8BSF4 50-406): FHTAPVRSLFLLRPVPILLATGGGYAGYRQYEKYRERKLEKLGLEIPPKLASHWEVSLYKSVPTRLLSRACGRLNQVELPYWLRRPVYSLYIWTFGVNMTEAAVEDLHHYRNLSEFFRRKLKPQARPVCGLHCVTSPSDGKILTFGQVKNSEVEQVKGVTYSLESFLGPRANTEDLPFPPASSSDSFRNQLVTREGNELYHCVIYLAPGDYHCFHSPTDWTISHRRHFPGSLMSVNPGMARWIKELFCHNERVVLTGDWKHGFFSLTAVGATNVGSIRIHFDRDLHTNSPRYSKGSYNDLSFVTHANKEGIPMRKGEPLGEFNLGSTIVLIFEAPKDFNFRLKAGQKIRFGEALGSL

Chain of AEA-DA lipid probe targets in Neuro2a cells (Mus musculus, UniProt Q8BUV8) (Q8BUV8 34-551): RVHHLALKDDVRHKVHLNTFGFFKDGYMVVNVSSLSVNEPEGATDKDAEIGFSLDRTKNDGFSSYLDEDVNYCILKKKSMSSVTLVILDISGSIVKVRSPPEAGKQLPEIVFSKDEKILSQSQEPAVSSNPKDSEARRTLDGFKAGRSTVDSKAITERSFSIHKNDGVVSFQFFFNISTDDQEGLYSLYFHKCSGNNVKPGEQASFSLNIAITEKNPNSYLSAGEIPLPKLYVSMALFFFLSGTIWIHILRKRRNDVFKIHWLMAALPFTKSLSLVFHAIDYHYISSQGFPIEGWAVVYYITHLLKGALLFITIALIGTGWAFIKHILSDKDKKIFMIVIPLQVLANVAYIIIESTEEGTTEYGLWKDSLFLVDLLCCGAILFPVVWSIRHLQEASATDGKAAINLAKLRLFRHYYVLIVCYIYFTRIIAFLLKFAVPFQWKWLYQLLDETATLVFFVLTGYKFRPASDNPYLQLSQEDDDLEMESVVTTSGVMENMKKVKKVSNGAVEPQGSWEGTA
Chain of AEA-DA lipid probe targets in Neuro2a cells (Mus musculus, UniProt Q9CQ45) (Q9CQ45 31-171): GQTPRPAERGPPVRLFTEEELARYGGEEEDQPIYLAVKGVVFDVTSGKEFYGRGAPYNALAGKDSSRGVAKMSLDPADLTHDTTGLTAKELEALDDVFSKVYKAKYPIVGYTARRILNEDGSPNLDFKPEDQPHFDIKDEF
Chain of AEA-DA lipid probe targets in Neuro2a cells (Mus musculus, UniProt Q9D771) (Q9D771 whole entry): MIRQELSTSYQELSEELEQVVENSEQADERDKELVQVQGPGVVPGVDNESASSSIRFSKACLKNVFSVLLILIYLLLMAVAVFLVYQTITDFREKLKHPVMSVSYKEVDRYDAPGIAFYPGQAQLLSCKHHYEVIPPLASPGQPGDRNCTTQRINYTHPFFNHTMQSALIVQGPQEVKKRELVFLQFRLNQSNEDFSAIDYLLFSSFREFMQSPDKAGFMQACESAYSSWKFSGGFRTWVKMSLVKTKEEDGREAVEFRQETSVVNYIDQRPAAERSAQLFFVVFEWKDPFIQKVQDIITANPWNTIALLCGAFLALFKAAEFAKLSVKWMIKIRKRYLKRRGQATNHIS
Chain of AEA-DA lipid probe targets in Neuro2a cells (Mus musculus, UniProt Q8VIK2) (Q8VIK2 whole entry): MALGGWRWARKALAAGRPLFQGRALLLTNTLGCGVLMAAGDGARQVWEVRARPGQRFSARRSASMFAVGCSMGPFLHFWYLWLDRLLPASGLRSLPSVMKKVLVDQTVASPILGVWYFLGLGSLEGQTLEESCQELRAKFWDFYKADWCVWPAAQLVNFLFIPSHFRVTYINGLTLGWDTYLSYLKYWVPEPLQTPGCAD

O=C(/C=C/c1cccnc1)NCCCCC1CCN(C(=O)c2ccccc2)CC1 [FK-866, reference compound]
SILAC ratio, Nenf ([1]; competitor 25 μM): 2.6
SILAC ratio Mpv17l2 ([2]; competitor 25 μM): 1.4
SILAC ratio Atp5f1 ([3]; competitor 25 μM): 1.1
SILAC ratio Tmem206 ([4]; competitor 25 μM): 0.9
SILAC ratio, Gpr107 ([5]; competitor 25 μM): 1.0
SILAC ratio, Kdelr3 ([6]; competitor 25 μM): 1.1
SILAC ratio, Qil1 ([7]; competitor 25 μM): 1.2
SILAC ratio, Timm23 ([8]; competitor 25 μM): 1.1
SILAC ratio, OPA3 (Q505D7) ([9]; competitor 25 μM): 1.1
SILAC ratio, Opa3 ([9]; competitor 25 μM): 1.1
SILAC ratio, Acadl ([10]; competitor 25 μM): 12.4

CCCCC/C=C\C/C=C\C/C=C\C/C=C\CCCC(=O)NCCO [AEA, anandamide, reference compound]
SILAC ratio, Nenf ([1]; competitor 200 μM): 1.4
SILAC ratio Mpv17l2 ([2]; competitor 200 μM): 1.3
SILAC ratio Atp5f1 ([3]; competitor 200 μM): 1.5
SILAC ratio Tmem206 ([4]; competitor 200 μM): 1.2
SILAC ratio, Gpr107 ([5]; competitor 200 μM): 1.6
SILAC ratio, Kdelr3 ([6]; competitor 200 μM): 1.2
SILAC ratio, Qil1 ([7]; competitor 200 μM): 1.9
SILAC ratio, Pisd ([11]; competitor 200 μM): 1.8
SILAC ratio, Timm23 ([8]; competitor 200 μM): 1.8
SILAC ratio, Acadl ([10]; competitor 200 μM): 1.1

CN1CCN(C(=O)c2c(-c3ccccc3)c3cc([N+](=O)[O-])ccc3n2C)CC1 [KML110, (1-Methyl-5-nitro-3-phenyl-1H-indol-2-yl)(4-methylpiperazin-1-yl)methanone]
SILAC ratio, Nenf ([1]; competitor 25 μM): 1.7
SILAC ratio Mpv17l2 ([2]; competitor 25 μM): 1.5
SILAC ratio Atp5f1 ([3]; competitor 25 μM): 1.6
SILAC ratio Tmem206 ([4]; competitor 25 μM): 1.2
SILAC ratio, Gpr107 ([5]; competitor 25 μM): 1.5
SILAC ratio, Kdelr3 ([6]; competitor 25 μM): 1.2
SILAC ratio, Qil1 ([7]; competitor 25 μM): 1.5
SILAC ratio, Pisd ([11]; competitor 25 μM): 1.4
SILAC ratio, Timm23 ([8]; competitor 25 μM): 1.3
SILAC ratio, Opa3 ([9]; competitor 25 μM): 1.6
SILAC ratio, Acadl ([10]; competitor 25 μM): 1.8

C=CCN(C)CCCCCCOc1ccc(C(=O)c2ccc(Br)cc2)c(F)c1 [Ro 48-8071, reference compound]
SILAC ratio, Nenf ([1]; competitor 25 μM): 0.9
SILAC ratio Mpv17l2 ([2]; competitor 25 μM): 1.8
SILAC ratio Atp5f1 ([3]; competitor 25 μM): 1.0
SILAC ratio Tmem206 ([4]; competitor 25 μM): 0.6
SILAC ratio, Gpr107 ([5]; competitor 25 μM): 1.8
SILAC ratio, Kdelr3 ([6]; competitor 25 μM): 0.9
SILAC ratio, Qil1 ([7]; competitor 25 μM): 1.2
SILAC ratio, Pisd ([11]; competitor 25 μM): 1.3
SILAC ratio, Timm23 ([8]; competitor 25 μM): 1.0
SILAC ratio, OPA3 (Q505D7) ([9]; competitor 25 μM): 1.4
SILAC ratio, Opa3 ([9]; competitor 25 μM): 1.4
SILAC ratio, Acadl ([10]; competitor 25 μM): 1.3

CN1CCN(C(=O)c2[nH]c3ccc([N+](=O)[O-])cc3c2-c2ccccc2)CC1 [MJN228, (4-Methylpiperazin-1-yl)(5-nitro-3-phenyl-1H-indol-2-yl)methanone]
SILAC ratio, Nenf ([1]; competitor 10 μM): 1.3
SILAC ratio, Nenf ([1]; competitor 25 μM): 1.3
SILAC ratio, Nenf ([1]; competitor 50 μM): 1.8
SILAC ratio, Nenf ([1]; competitor 100 μM): 1.7
SILAC ratio Mpv17l2 ([2]; competitor 10 μM): 1.1
SILAC ratio Mpv17l2 ([2]; competitor 25 μM): 1.2
SILAC ratio Mpv17l2 ([2]; competitor 50 μM): 1.0
SILAC ratio Mpv17l2 ([2]; competitor 100 μM): 3.6
SILAC ratio Atp5f1 ([3]; competitor 10 μM): 1.2
SILAC ratio Atp5f1 ([3]; competitor 25 μM): 1.5
SILAC ratio Atp5f1 ([3]; competitor 50 μM): 1.6
SILAC ratio Atp5f1 ([3]; competitor 100 μM): 1.8
SILAC ratio Tmem206 ([4]; competitor 10 μM): 1.1
SILAC ratio Tmem206 ([4]; competitor 25 μM): 1.3
SILAC ratio Tmem206 ([4]; competitor 100 μM): 0.7
SILAC ratio, Gpr107 ([5]; competitor 10 μM): 1.1
SILAC ratio, Gpr107 ([5]; competitor 25 μM): 1.3
SILAC ratio, Gpr107 ([5]; competitor 50 μM): 2.1
SILAC ratio, Gpr107 ([5]; competitor 100 μM): 2.9
SILAC ratio, Kdelr3 ([6]; competitor 10 μM): 1.2
SILAC ratio, Kdelr3 ([6]; competitor 25 μM): 1.3
SILAC ratio, Kdelr3 ([6]; competitor 50 μM): 1.3
SILAC ratio, Kdelr3 ([6]; competitor 100 μM): 1.6
SILAC ratio, Qil1 ([7]; competitor 10 μM): 1.2
SILAC ratio, Qil1 ([7]; competitor 25 μM): 1.5
SILAC ratio, Qil1 ([7]; competitor 50 μM): 1.7
SILAC ratio, Qil1 ([7]; competitor 100 μM): 2.5
SILAC ratio, Pisd ([11]; competitor 25 μM): 1.4
SILAC ratio, Timm23 ([8]; competitor 10 μM): 1.0
SILAC ratio, Timm23 ([8]; competitor 25 μM): 1.2
SILAC ratio, Timm23 ([8]; competitor 50 μM): 1.3
SILAC ratio, Timm23 ([8]; competitor 100 μM): 1.5
SILAC ratio, OPA3 (Q505D7) ([9]; competitor 25 μM): 1.4
SILAC ratio, Opa3 ([9]; competitor 10 μM): 1.4
SILAC ratio, Opa3 ([9]; competitor 25 μM): 1.4
SILAC ratio, Opa3 ([9]; competitor 50 μM): 1.5
SILAC ratio, Opa3 ([9]; competitor 100 μM): 1.9
SILAC ratio, Acadl ([10]; competitor 10 μM): 1.4
SILAC ratio, Acadl ([10]; competitor 25 μM): 1.8
SILAC ratio, Acadl ([10]; competitor 50 μM): 2.0
SILAC ratio, Acadl ([10]; competitor 100 μM): 2.4
